Test results reported in patent US20120214824A1, “PROTEOSTASIS REGULATORS” (priority 2010, published 2012).

How the values were obtained:
firefly luciferase = assay: Luciferase folding assay (Lucif.); assay type: cell-based, human; settings: HeLa-luciferase cells; Table 1a
From the text: Firefly luciferase is a commonly used bioluminescent reporter. This monomeric enzyme of 61 kDa catalyzes a two-step oxidation reaction to yield light, usually in the green to yellow region, typically 550-570 nm. The first step of this reaction is activation of the luciferyl carboxylate by ATP to yield a reactive mixed anhydride. In the second step, the activated intermediate reacts with oxygen to create a transient dioxetane that breaks down to the oxidized products, oxyluciferin and CO2. Upon mixing with substrates, firefly luciferase produces an initial burst of light that decays over about 15 seconds to a low level of sustained luminescence. This kinetic profile reflects the slow release of the enzymatic product, thus limiting catalytic turnover after the initial reaction.
This mammalian cell based assay that used firefly luciferase as a sensor was used to screen for compounds that may modulate the cellular folding environment.
HeLa luciferase cell lines: Frozen bullets containing the cells were thawed briefly at 37° C. then placed into a T-150 flask containing 30-35 ml DMEM medium+Penicillin/Strep (1% final+10% FBS (final)+Geneticin @ 200-500 ug/ml. Cell cultures were maintained at 37° C. with 5% CO2 and water in the bottom of the incubator to keep cells healthy. Upon expanding cell line, luciferase measurements were taken to make sure that activity levels were between 2000-5000 (RLU) when plated at 15K/well in a 96-well format (Bright-Glo Promega) before compound treatment.
Compound treatment of HeLa-luciferase cells: HeLa-luciferase WT cells were plated in a 96-well format at 15K/well the day prior to performing compound treatment and/or luciferase assay. […] Final volume used per well was 90 uL. Flat bottom, white polystyrene plates were used for plating the cells.
For compound treatment, stocks of compounds were made up at 10 mM concentration in DMSO. Stocks compounds were diluted by 100× fold in the same media used for culturing the cells—this leads to a 0.1 mM (or 100 uM) concentration. After diluting the compound in media, 10 uL of the 100 uM solution was placed into each well of cells (90 uL); making the final concentration of the compound 10 uM. If serial dilutions of compounds were tested, serial dilutions of compounds were first made in DMSO accordingly, and further diluted in the media, prior to adding to cells. This procedure allowed for constant final levels of DMSO concentrations, regardless of initial compound concentration.
Performing luciferase activity assay: Bright-Glo Luciferase Assay Reagent (Promega cat #: E2610, E2620, E2650) was thawed out at RT in a water bath. Alternatively, Bright-Glo Luciferase assay buffer (prior to mixing with substrate) was stored overnight at RT, prior to using.
Following compound treatment, plates were removed from 37° C. and allowed to acclimate to RT for 5-10 min. Bright-Glo reagent was added to each cell-containing well in a 1:1 ratio (e.g., 100 uL of Bright Glo for each 100 uL cells).
Plates were placed on a plate shaker for 5 min, removing any air bubbles on the surface (which may interfere with proper reads), and then read on an EnVision 2104 Multilabel reader, Emission filter Luminescence 700, barcode 212, WL 400-700 nm.
Data for representative compounds in this assay are shown under the heading “Lucif.”

[1] = system: medium spiny neurons in rat brain slices transfected with human mutant huntingtin-based constructs; assay: Huntington's disease brain slice-based screening assay; assay type: cell-based; settings: ex vivo rat brain slices transfected with Htt-exon1-Q73 construct; at concentrations from 0.1 uM to 3 uM (tested 0.03, 0.1, 0.3, 1 and 3 uM)
Procedure: The FIGURE is a bar graph showing the number of healthy medium spiny neurons in rat brain slices for YFP, mN90Q73, KW+SP (positive control) and for [4-(2-isopropoxyphenyl)-2-methyl-5-oxo-7-(thiophen-2-yl)-1,4,5,6,7,8-hexahydroquinoline-3-carbonitrile] exposure at 0.03, 0.1, 0.3, 1 and 3 uM. Hemi-coronal brain slices containing striatum were prepared and transfected with control and huntingtin (Htt) constructs. YFP is Yellow Fluorescence Protein (YFP) plus vector. mN90Q73 is YFP plus the Htt-exon1-Q73 construct. The combination of KW-6002 (50 uM) and SP600125 (30 uM) was used as a positive control.
Selected compounds that modulated proteostasis network genes were tested in an ex vivo screening assay in which rat brain slices were transfected with human mutant huntingtin-based constructs as described in Reinhart et al., Identification of anti-inflammatory targets for Huntington's disease using a brain slice-based screening assay, Neurobiology of Disease (2011), 43(1), 248-256, the contents of which are expressly incorporated by reference herein. Hemi-coronal brain slices containing striatum were prepared and transfected with control and huntingtin (Htt) constructs.
50 uM KW-6002 (Istradefylline) in combination with 30 uM SP600125 was used as a positive control. YFP is Yellow Fluorescence Protein (YFP) plus vector. mN90Q73 is YFP plus the Htt-exonl-Q73 construct. […]

GCLM = assay: Multigene assay (QuantiGene Plex 2.0), mouse MEF cell line; assay type: cell-based; settings: 6 hours post-compound treatment, Table 1a
Method in brief: (§1)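 Branched-DNA multiplex mRNA quantitation with Luminex SAPE fluorescence, taken 6 h after dosing cells with a 7-point compound dilution series. Signals per gene were scaled to DMSO wells and then to a housekeeping transcript (TBP or alpha-tubulin) to give fold change.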

BCL2 = assay: as above; assay type: cell-based; settings: 6 hours post-compound treatment, Table 1b
Method in brief: as §1

HMOX = assay: as above; assay type: cell-based; settings: 6 hours post-compound treatment, Table 1b
Method in brief: as §1

HspA5 = assay: as above; assay type: cell-based; settings: 6 hours post-compound treatment, Table 1b
Method in brief: as §1

DDIT3 = assay: as above; assay type: cell-based; settings: 6 hours post-compound treatment, Table 1a
Method in brief: as §1

HSPA1a = assay: as above; assay type: cell-based; settings: 6 hours post-compound treatment, Table 1b
Method in brief: as §1

TUB1 = assay: as above; assay type: cell-based; settings: 6 hours post-compound treatment, Table 1a
Method in brief: as §1

## CC1=C(C#N)C(c2ccccc2OC(C)C)C2=C(CC(c3cccs3)CC2=O)N1 (stereo not drawn) [drawing 26/Me/CN/o-OCHMe2, 4-(2-isopropoxyphenyl)-2-methyl-5-oxo-7-(thiophen-2-yl)-1,4,5,6,7,8-hexahydroquinoline-3-carbonitrile]
Firefly luciferase
  Lucif. (luciferase activity induction): + (+ indicates a induction of greater than 2 fold)
[1]
  medium spiny neurons viability (number of healthy medium spiny neurons): improved medium spiny neurons viability
GCLM
  GCLM gene induction: − (− Indicates less than 2 fold induction)
BCL2
  BCL2 gene induction: − (− Indicates less than 2 fold induction)
HMOX
  HMOX gene induction: − (− Indicates less than 2 fold induction)
HspA5
  HspA5 gene induction: − (− Indicates less than 2 fold induction)
DDIT3
  DDIT3 gene induction: − (− Indicates less than 2 fold induction)
HSPA1a
  HSPA1a gene induction: − (− Indicates less than 2 fold induction)
TUB1
  TUB1 gene induction: − (− Indicates less than 2 fold induction)
